# In patent US20230002367A1, “BIFUNCTIONAL COMPOUNDS” (Hoffmann-La Roche Inc., priority 2019, published 2023):
# Target: T1, SMARCA2 (Homo sapiens, UniProt P51531)
# T1 construct: endogenous in cells
# Assay: SMARCA2 HiBiT degradation assay (cellular)
# Format: cell-based
# Conditions: for Emax: A549, Emax = amount of residual protein remaining in the cell following compound treatment; for DC50: SMARCA2 HiBiT cells, luminescence readout, 11-point titration from 10 μM, 6 hours or 16 hours, read-out: HiBit A549 SMARCA2 IP
# T1 sequence (P51531 whole entry): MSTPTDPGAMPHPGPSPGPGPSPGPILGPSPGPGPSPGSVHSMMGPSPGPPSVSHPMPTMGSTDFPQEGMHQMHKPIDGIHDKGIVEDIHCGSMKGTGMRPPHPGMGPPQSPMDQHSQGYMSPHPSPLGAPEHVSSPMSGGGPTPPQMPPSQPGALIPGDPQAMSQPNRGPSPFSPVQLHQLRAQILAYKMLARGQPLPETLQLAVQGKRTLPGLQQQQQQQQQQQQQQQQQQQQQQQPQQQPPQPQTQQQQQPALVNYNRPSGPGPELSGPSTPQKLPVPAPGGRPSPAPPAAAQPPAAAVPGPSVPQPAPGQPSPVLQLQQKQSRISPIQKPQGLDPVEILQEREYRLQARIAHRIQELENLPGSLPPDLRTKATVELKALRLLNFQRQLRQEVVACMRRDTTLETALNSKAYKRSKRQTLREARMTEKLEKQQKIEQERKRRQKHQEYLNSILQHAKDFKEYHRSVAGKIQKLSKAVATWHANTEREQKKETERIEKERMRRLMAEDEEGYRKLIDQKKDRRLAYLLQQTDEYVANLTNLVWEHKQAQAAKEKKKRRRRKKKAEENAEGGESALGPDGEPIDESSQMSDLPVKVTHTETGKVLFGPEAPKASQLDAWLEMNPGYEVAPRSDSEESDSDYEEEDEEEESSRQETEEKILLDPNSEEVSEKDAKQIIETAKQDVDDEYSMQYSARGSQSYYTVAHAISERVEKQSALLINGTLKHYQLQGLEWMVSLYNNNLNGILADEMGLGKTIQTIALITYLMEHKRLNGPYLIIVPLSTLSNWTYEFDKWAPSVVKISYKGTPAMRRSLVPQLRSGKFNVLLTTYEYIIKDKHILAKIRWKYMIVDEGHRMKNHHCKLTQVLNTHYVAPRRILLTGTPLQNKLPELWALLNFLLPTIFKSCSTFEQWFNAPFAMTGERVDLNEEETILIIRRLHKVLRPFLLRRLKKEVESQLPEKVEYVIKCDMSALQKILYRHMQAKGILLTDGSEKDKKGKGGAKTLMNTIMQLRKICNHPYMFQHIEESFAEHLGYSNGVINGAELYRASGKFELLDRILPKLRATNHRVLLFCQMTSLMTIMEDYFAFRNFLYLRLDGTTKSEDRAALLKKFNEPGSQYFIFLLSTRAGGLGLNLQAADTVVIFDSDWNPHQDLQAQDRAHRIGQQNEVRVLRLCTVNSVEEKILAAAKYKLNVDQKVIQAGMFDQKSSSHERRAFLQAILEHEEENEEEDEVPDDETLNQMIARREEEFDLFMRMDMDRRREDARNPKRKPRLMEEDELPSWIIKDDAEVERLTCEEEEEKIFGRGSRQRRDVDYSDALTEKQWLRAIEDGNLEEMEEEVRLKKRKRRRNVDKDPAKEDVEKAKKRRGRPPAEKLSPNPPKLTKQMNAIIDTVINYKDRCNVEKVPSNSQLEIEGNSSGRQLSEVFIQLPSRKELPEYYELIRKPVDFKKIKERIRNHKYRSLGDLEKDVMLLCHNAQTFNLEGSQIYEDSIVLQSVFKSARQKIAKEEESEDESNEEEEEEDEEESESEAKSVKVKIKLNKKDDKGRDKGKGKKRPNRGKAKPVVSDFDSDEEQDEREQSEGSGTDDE
Structure (SMILES),Emax [%],DC50 [nM]
"Cc1ncsc1-c1ccc(CNC(=O)[C@@H]2C[C@@H](O)CN2C(=O)[C@@H](NC(=O)CCCCCCCCC(=O)N2CCOC3(CCN(c4cc(-c5ccccc5O)nnc4N)CC3)C2)C(C)(C)C)cc1 [Example 12, (2S,4R)-1-[(2S)-2-[[10-[9-[3-amino-6-(2-hydroxyphenyl)pyridazin-4-yl]-1-oxa-4,9-diazaspiro[5.5]undecan-4-yl]-10-oxo-decanoyl]amino]-3,3-dimethyl-butanoyl]-4-hydroxy-N-[[4-(4-methylthiazol-5-yl)phenyl]methyl]pyrrolidine-2-carboxamide]",43,2460
"Cc1ncsc1-c1ccc(CNC(=O)[C@@H]2C[C@H](O)CN2C(=O)[C@@H](NC(=O)CCCCCCCC(=O)N2CCC(Cc3cccc(N4C5CCC4CN(c4cc(-c6ccccc6O)nnc4N)C5)c3)CC2)C(C)(C)C)cc1 [Example 13, (2S,4S)-1-[(2S)-2-[[9-[4-[[3-[3-[3-amino-6-(2-hydroxyphenyl)pyridazin-4-yl]-3,8-diazabicyclo[3.2.1]octan-8-yl]phenyl]methyl]-1-piperidyl]-9-oxo-nonanoyl]amino]-3,3-dimethyl-butanoyl]-4-hydroxy-N-[[4-(4-methylthiazol-5-yl)phenyl]methyl]pyrrolidine-2-carboxamide]",28,954
"Cc1ncsc1-c1ccc(CNC(=O)[C@@H]2C[C@H](O)CN2C(=O)[C@@H](NC(=O)CCCCCC(=O)N2CCC(Cc3cccc(N4C5CCC4CN(c4cc(-c6ccccc6O)nnc4N)C5)c3)CC2)C(C)(C)C)cc1 [Example 14, (2S,4S)-1-[(2S)-2-[[7-[4-[[3-[3-[3-amino-6-(2-hydroxyphenyl)pyridazin-4-yl]-3,8-diazabicyclo[3.2.1]octan-8-yl]phenyl]methyl]-1-piperidyl]-7-oxo-heptanoyl]amino]-3,3-dimethyl-butanoyl]-4-hydroxy-N-[[4-(4-methylthiazol-5-yl)phenyl]methyl]pyrrolidine-2-carboxamide]",38,995
"Cc1ncsc1-c1ccc(CNC(=O)[C@@H]2C[C@H](O)CN2C(=O)[C@@H](NC(=O)CCCCCCCCCC(=O)N2CCC(Cc3cccc(N4C5CCC4CN(c4cc(-c6ccccc6O)nnc4N)C5)c3)CC2)C(C)(C)C)cc1 [Example 15, (2S,4S)-1-[(2S)-2-[[11-[4-[[3-[3-[3-amino-6-(2-hydroxyphenyl)pyridazin-4-yl]-3,8-diazabicyclo[3.2.1]octan-8-yl]phenyl]methyl]-1-piperidyl]-11-oxo-undecanoyl]amino]-3,3-dimethyl-butanoyl]-4-hydroxy-N-[[4-(4-methylthiazol-5-yl)phenyl]methyl]pyrrolidine-2-carboxamide]",24,487
"Cc1ncsc1-c1ccc(CNC(=O)[C@@H]2C[C@@H](O)CN2C(=O)[C@@H](NC(=O)CCCCCCCCC(=O)N2CCN(c3cc(-c4ccccc4O)nnc3N)CC23CC3)C(C)(C)C)cc1 [Example 16, (2S,4R)-1-[(2S)-2-[[10-[7-[3-amino-6-(2-hydroxyphenyl)pyridazin-4-yl]-4,7-diazaspiro[2.5]octan-4-yl]-10-oxo-decanoyl]amino]-3,3-dimethyl-butanoyl]-4-hydroxy-N-[[4-(4-methylthiazol-5-yl)phenyl]methyl]pyrrolidine-2-carboxamide]",33,872
"Cc1ncsc1-c1ccc(CNC(=O)[C@@H]2C[C@@H](O)CN2C(=O)[C@@H](NC(=O)CCCCCCCCC(=O)N2CC=C(c3cc(-c4ccccc4O)nnc3N)CC2)C(C)(C)C)cc1 [Example 17, (2S,4R)-1-[(2S)-2-[[10-[4-[3-amino-6-(2-hydroxyphenyl)pyridazin-4-yl]-3,6-dihydro-2H-pyridin-1-yl]-10-oxo-decanoyl]amino]-3,3-dimethyl-butanoyl]-4-hydroxy-N-[[4-(4-methylthiazol-5-yl)phenyl]methyl]pyrrolidine-2-carboxamide]",50,2820
"Cc1ncsc1-c1ccc(CNC(=O)[C@@H]2C[C@@H](O)CN2C(=O)[C@@H](NC(=O)CCCCCCCCCC(=O)N2CCN(C(=O)c3cccc(CN4C5CCC4CN(c4cc(-c6ccccc6O)nnc4N)C5)c3)CC2)C(C)(C)C)cc1 [Example 18, (2S,4R)-1-[(2S)-2-[[11-[4-[3-[[3-[3-amino-6-(2-hydroxyphenyl)pyridazin-4-yl]-3,8-diazabicyclo[3.2.1]octan-8-yl]methyl]benzoyl]piperazin-1-yl]-11-oxo-undecanoyl]amino]-3,3-dimethyl-butanoyl]-4-hydroxy-N-[[4-(4-methylthiazol-5-yl)phenyl]methyl]pyrrolidine-2-carboxamide]",63,848
"Cc1ncsc1-c1ccc(CNC(=O)[C@@H]2C[C@@H](O)CN2C(=O)[C@@H](NC(=O)CCCCCCCCC(=O)N2C3CCCC2CN(c2cc(-c4ccccc4O)nnc2N)C3)C(C)(C)C)cc1 [Example 19, (2S,4R)-1-[(2S)-2-[[10-[3-[3-Amino-6-(2-hydroxyphenyl)pyridazin-4-yl]-3,9-diazabicyclo[3.3.1]nonan-9-yl]-10-oxo-decanoyl]amino]-3,3-dimethyl-butanoyl]-4-hydroxy-N-[[4-(4-methylthiazol-5-yl)phenyl]methyl]pyrrolidine-2-carboxamide]",18,754
"Cc1ncsc1-c1ccc(CNC(=O)[C@@H]2C[C@@H](O)CN2C(=O)[C@H](NC(=O)CCCCCCCCCOc2cccc(N3C4CCC3CN(c3cc(-c5ccccc5O)nnc3N)C4)c2)C(C)(C)C)cc1 [Example 20, (2S,4R)-1-[(2R)-2-[10-[3-[3-[3-amino-6-(2-hydroxyphenyl)pyridazin-4-yl]-3,8-diazabicyclo[3.2.1]octan-8-yl]phenoxy]decanoylamino]-3,3-dimethyl-butanoyl]-4-hydroxy-N-[[4-(4-methylthiazol-5-yl)phenyl]methyl]pyrrolidine-2-carboxamide]",33,313
"Cc1ncsc1-c1ccc(CNC(=O)[C@@H]2C[C@@H](O)CN2C(=O)[C@@H](NC(=O)CCCCCCCCC(=O)N2CCN(Cc3cccc(CN4C5CCC4CN(c4cc(-c6ccccc6O)nnc4N)C5)c3)CC2)C(C)(C)C)cc1 [Example 29, (2S,4R)-1-[(2S)-2-[[10-[4-[[3-[[3-[3-amino-6-(2-hydroxyphenyl)pyridazin-4-yl]-3,8-diazabicyclo[3.2.1]octan-8-yl]methyl]phenyl]methyl]piperazin-1-yl]-10-oxo-decanoyl]amino]-3,3-dimethyl-butanoyl]-4-hydroxy-N-[[4-(4-methylthiazol-5-yl)phenyl]methyl]pyrrolidine-2-carboxamide]",30,1110
"Cc1ncsc1-c1ccc(CNC(=O)[C@@H]2C[C@@H](O)CN2C(=O)[C@H](C(C)C)N2Cc3ccccc3C2=O)c(OCCCCCCCCCCC(=O)N2CCN(CCOc3cccc(N4C5CCC4CN(c4cc(-c6ccccc6O)nnc4N)C5)c3)CC2)c1 [Example 30, (2S,4R)-N-[[2-[11-[4-[2-[3-[3-[3-amino-6-(2-hydroxyphenyl)pyridazin-4-yl]-3,8-diazabicyclo[3.2.1]octan-8-yl]phenoxy]ethyl]piperazin-1-yl]-11-oxo-undecoxy]-4-(4-methylthiazol-5-yl)phenyl]methyl]-4-hydroxy-1-[(2S)-3-methyl-2-(1-oxoisoindolin-2-yl)butanoyl]pyrrolidine-2-carboxamide]",65,1160
